Experimental data taken from patent US12208130B2, “Treatment of women affected with polycystic ovary syndrome” (INSTITUT NATIONAL DE LA SANTE ET DE LA RECHERCHE MEDICALE …, priority 2017, dated 2025).
Where a SMILES comes first, the peptide text is derived from it. [ ]: non-standard residue; d: D form. dPhe(4-Cl) = N[C@H](Cc1ccc(Cl)cc1)C(=O)O; d2Nal = N[C@H](Cc1ccc2ccccc2c1)C(=O)O; dCit = NC(=O)NCCC[C@@H](N)C(=O)O; d3Pal = N[C@H](Cc1cccnc1)C(=O)O

Test system: pregnant mice
Experiment: LH, T, E2 and P measurement in pregnant mice at E19.5
Format: in vivo, mouse
Experimental: PAMH+GnRH antag. (FIG. 3D) Schematic representation of tail-tip blood sampling in adult diestrus female mice (3-4 months old). (FIG. 3E) Tail blood was collected every 10 min for 2 h and LH measured from 10 a.m-12 p.m in adult (P60) diestrus females (Control, n=8; PAMH, n=10; PAMH+GnRH antag, n=9; One-way ANOVA and Tukey's multiple comparison post hoc test, F(2,24)=57.06, *P<0.05, ***P<0.0001). Bars from left to right: Control, PAMH, PAMH+GnRH antag. (FIGS. 2F-1, 2F-2, 2F-3) Representative graphs for LH pulsatility over 2-hr in one female adult (P60) mouse of each treatment. Asterisks in (FIG. 3F) indicate the number of LH pulses/2-hr. (FIG. 3G) Mean circulating testosterone and LH levels were analyzed in pregnant PBS-treated (n=4) and AMH-treated (n=4) dams at embryonic day (E) 19.5 of gestation. […] Values are expressed as relative to the mean of each treatment. All values are expressed as mean±s.e.m. […]
For the analysis of circulating LH and T levels, animals were decapitated and trunk blood from adult (P60) animals and P0 pups (1-2 hrs after birth) were collected in sterile Eppendorf tubes and left on ice until centrifugation. […] LH levels were determined by a sandwich ELISA, as described previously (Vidal et al., 2012, PloS one, Vol. 7: e39001), using the mouse LH-RP reference provided by A. F. Parlow (National Hormone and Pituitary Program, Torrance, CA). […]

With CC(=O)N[C@H](Cc1ccc2ccccc2c1)C(=O)N[C@H](Cc1ccc(Cl)cc1)C(=O)N[C@H](Cc1cccnc1)C(=O)N[C@@H](CO)C(=O)N[C@@H](Cc1ccc(O)cc1)C(=O)N[C@H](CCCNC(N)=O)C(=O)N[C@@H](CC(C)C)C(=O)N[C@@H](CCCNC(=N)N)C(=O)N1CCC[C@H]1C(=O)N[C@H](C)C(N)=O [Cetrorelix acetate, Ac-D-2Nal-D-Phe(4-Cl)-D-3Pal-Ser-Tyr-D-Cit-Leu-Arg-Pro-D-Ala-NH2] (Ac-[d2Nal][dPhe(4-Cl)][d3Pal]SY[dCit]LRP[dA]-NH2) the “circulating T in dams” value (dams i.p. AMH + GnRH antag E16.5-E18.5) was “very low T levels” and the “AMH-induced increase of LH in pregnant mice” value (dams i.p. AMH + GnRH antagonist E16.5-E18.5) was “prevented”.
